Source: paper PMC7062867, “Targeting the Oncogenic TBX2 Transcription Factor With Chromomycins” (Frontiers in Chemistry, 2020)

Legend:
TBX2 [1] = biological target: T1, TBX2 (Homo sapiens, UniProt Q13207); test: microscale thermophoresis; assay type: binding
T1 sequence (Q13207 94-287): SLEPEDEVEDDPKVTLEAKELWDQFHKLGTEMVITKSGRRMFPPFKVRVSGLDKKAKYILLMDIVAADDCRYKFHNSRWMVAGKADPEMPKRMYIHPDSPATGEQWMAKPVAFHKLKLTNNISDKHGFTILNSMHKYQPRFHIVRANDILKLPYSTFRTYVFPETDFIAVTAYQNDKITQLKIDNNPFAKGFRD

TBX2 [2] = biological target: T1, TBX2; test: microscale thermophoresis; also recovered by reverse affinity chromatography with UPLC-MS; assay type: binding

| Structure (SMILES) | Kd (TBX2 [1]) | Kd (TBX2 [2]) |
| --- | --- | --- |
| CO[C@@H]1[C@H](O)C[C@@H](O[C@@H]2C[C@H](Oc3cc4cc5c(c(O)c4c(O)c3C)C(=O)C(O[C@H]3C[C@@H](O[C@H]4C[C@@H](O[C@H]6C[C@](C)(O)[C@@H](OC(C)=O)[C@H](C)O6)[C@H](O)[C@@H](C)O4)[C@H](O)[C@@H](C)O3)C([C@H](OC)C(=O)[C@@H](O)[C@@H](C)O)C5)O[C@H](C)[C@@H]2OC(C)=O)O[C@@H]1C (some centres unmarked) [CA6, chromomycin A6] | 24.4 ± 13.6 µM | – |
| CO[C@@H]1[C@H](O)C[C@@H](O[C@@H]2C[C@H](Oc3cc4cc5c(c(O)c4c(O)c3C)C(=O)C(O[C@H]3C[C@@H](O[C@H]4C[C@@H](O[C@H]6C[C@](C)(O)[C@@H](OC(=O)C(C)C)[C@H](C)O6)[C@H](O)[C@@H](C)O4)[C@H](O)[C@@H](C)O3)C([C@H](OC)C(=O)[C@@H](O)[C@@H](C)O)C5)O[C@H](C)[C@@H]2OC(C)=O)O[C@@H]1C (some centres unmarked) [CA5, chromomycin A5] | – | 31.3 ± 23.3 µM |
